{"source": "patent US8541449B2", "about": "“Substituted isoquinolines and isoquinolinones as Rho kinase inhibitors” (Sanofi, priority 2008, dated 2013)", "format_in_all_cases": "biochemical", "key": {"[1]": {"molecular_target": "T1, human recombinant ROCK II (Homo sapiens, UniProt O75116)", "T1 construct": "N-terminal His6-tagged recombinant human ROCK-II residues 11-552; His6 (N); purchased Millipore GmbH, Schwalbach, Germany", "T1 sequence (O75116 11-552)": "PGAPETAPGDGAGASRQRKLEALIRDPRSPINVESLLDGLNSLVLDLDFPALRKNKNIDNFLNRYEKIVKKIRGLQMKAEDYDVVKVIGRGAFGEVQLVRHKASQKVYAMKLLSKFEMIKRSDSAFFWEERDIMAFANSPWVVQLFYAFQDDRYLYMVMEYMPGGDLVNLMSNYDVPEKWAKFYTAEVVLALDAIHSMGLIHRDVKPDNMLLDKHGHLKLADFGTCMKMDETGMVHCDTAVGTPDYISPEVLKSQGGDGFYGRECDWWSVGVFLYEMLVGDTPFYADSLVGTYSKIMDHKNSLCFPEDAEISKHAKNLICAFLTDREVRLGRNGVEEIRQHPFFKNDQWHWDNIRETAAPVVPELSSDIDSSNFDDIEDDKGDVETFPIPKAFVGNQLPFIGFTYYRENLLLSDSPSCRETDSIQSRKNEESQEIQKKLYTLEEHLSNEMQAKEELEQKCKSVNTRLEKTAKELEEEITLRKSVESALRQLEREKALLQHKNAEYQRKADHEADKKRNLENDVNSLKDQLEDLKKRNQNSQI", "assay": "Determination of Rho kinase inhibition (Caliper peptide phosphorylation assay)", "details": "60 min at 32° C., negative decadal logarithm of the IC50", "procedure": "Determination of Rho Kinase Inhibition\nTo measure Rho-kinase inhibition, IC50 values were determined according to the following protocol:\nActive human recombinant ROCK II (N-terminal His6-tagged recombinant human ROCK-II residues 11-552) was purchased from Millipore GmbH, Schwalbach, Germany. The peptide substrate, Fluorescein-[…]-COOH, was obtained from JPT Peptide Technologies, Berlin, Germany. Adenosine-5′-triphosphate (ATP), bovine serum albumine (BSA), dimethylsulphoxide (DMSO), 4-(2-Hydroxyethyl)piperazine-1-ethanesulfonic acid (Hepes), Brij-35, dithiothreitol (DTT) and Pluronic F-68 were purchased from Sigma-Aldrich, Munich, Germany. Tris(hydroxymethyl)-aminomethane (Tris), magnesium chloride, NaOH, 1M HCl and EDTA were obtained from Merck Biosciences, Darmstadt, Germany. “Complete” protease inhibitor was from Roche Diagnostics, Mannheim, Germany.\n(§1) Test compounds were diluted to the appropriate concentrations in buffer 1 (25 mM Tris-HCl, pH 7.4, 5 mM MgCl2, 2 mM DTT, 0.02% (w/v) BSA, 0.01% Pluronic F-68 and 3% DMSO). The ROCK II enzyme was diluted to a concentration of 100 ng/mL in buffer 2 (25 mM Tris-HCl, pH 7.4, 5 mM MgCl2, 2 mM DTT and 0.02% (w/v) BSA). The peptide substrate and ATP were diluted to concentrations of 3 μM and 120 μM, respectively, in the buffer 2. Two μl of the compound solution were mixed with 2 μl of the diluted enzyme in a 384-well small volume microtiter plate (Greiner, Bio-One, Frickenhausen, Germany), and the kinase reaction was initiated by addition of 2 μl of the solution containing peptide substrate and ATP. After 60 min incubation at 32° C., the reaction was stopped by addition of 20 μl of a solution containing 100 mM Hepes-NaOH, pH 7.4, 0.015% (v/v) Brij-35, 45 mM EDTA and 0.227% chip coating reagent 1 (Caliper Lifescience Inc, Hopkinton, Mass.). Phosphorylation of the substrate peptide was then detected on a Caliper 3000 instrument essentially as described by Pommereau et al (J. Biomol. Screening 9(5), 409-416, 2004). Separation conditions were as follows: Pressure −1.3 psi, upstream voltage −1562 V, downstream voltage −500 V, sample sip time 200 ms. Positive controls (buffer 1 instead of compound) and negative controls (buffer 1 instead of compound and buffer 2 instead of ROCK II) were run in parallel on each plate.\nThe following products/compounds were tested in said assay by using the respective form (salt or free base) obtained as in the examples described above and the following activities were measured"}, "[2]": {"molecular_target": "T2, recombinant human PKG1-beta (Homo sapiens, UniProt Q13976)", "T2 construct": "Active recombinant human PKG1-beta (full-length, with N-terminal His-tag); His-tag (N); purchased Millipore GmbH, Schwalbach, Germany", "T2 sequence (Q13976 1-686 isoform Q13976-2)": "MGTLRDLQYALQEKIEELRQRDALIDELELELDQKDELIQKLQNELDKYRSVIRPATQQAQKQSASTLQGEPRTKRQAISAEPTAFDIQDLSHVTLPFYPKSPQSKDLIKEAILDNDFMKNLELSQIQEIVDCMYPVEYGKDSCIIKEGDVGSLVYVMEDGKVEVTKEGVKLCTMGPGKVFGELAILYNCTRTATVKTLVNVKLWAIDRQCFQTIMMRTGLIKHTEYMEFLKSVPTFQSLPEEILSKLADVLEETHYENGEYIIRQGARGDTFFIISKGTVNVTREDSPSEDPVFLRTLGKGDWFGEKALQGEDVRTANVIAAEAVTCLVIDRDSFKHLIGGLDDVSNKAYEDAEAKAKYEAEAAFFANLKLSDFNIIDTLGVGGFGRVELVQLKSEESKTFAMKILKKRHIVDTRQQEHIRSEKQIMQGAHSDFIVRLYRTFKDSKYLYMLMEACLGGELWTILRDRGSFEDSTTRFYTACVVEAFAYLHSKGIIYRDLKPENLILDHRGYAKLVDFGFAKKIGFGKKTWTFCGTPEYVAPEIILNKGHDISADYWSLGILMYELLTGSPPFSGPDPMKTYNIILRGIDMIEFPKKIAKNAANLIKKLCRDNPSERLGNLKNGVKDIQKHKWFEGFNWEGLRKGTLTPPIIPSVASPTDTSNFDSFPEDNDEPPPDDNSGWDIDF", "assay": "Determination of Protein Kinase G inhibition (Caliper peptide phosphorylation assay)", "details": "recombinant human PKG1-beta versus ROCK II", "procedure": "(§2) Determination of Protein Kinase A and Protein Kinase G Inhibition\n(§3) To measure PKA and PKG1-beta inhibition, IC50 values were determined according to the following protocol:\n(§4) Active recombinant human PKG1-beta (full-length, with N-terminal His-tag) was purchased from Millipore GmbH, Schwalbach, Germany. Active recombinant human PKA (residues 1-351, N-terminal His-tag) was obtained from Invitrogen, Karlsruhe, Germany. The peptide substrate, Fluorescein-[…]-COOH, was obtained from JPT Peptide Technologies, Berlin, Germany. Adenosine-5′-triphosphate (ATP), bovine serum albumine (BSA), dimethylsulphoxide (DMSO), 4-(2-Hydroxyethyl)piperazine-1-ethanesulfonic acid (Hepes), Brij-35, dithiothreitol (DTT) and Pluronic F-68 were purchased from Sigma-Aldrich, Munich, Germany. Tris(hydroxymethyl)-aminomethane (Tris), magnesium chloride, NaOH, 1M HCl and EDTA were obtained from Merck Biosciences, Darmstadt, Germany. “Complete” protease inhibitor was from Roche Diagnostics, Mannheim, Germany.\nas §1, with “PKG1-beta and PKA were” for “The ROCK II enzyme was”, “concentrations” for “a concentration”, “150 ng/ml and 30 ng/ml, respectively,” for “100 ng/mL”, “2.” for “2 (25 mM Tris-HCl, pH 7.4, 5 mM MgCl2, 2 mM DTT and 0.02% (w/v) BSA).”, “kinase solution)” for “ROCK II)”, “plate. The following products/compounds were tested in said assay by using the respective form (salt or free base) obtained as in the examples described above and the following activities were measured.” for “plate.”"}, "[3]": {"molecular_target": "T3, recombinant human PKA (Homo sapiens, UniProt P17612)", "T3 construct": "Active recombinant human PKA (residues 1-351, N-terminal His-tag); His-tag (N); purchased Invitrogen, Karlsruhe, Germany", "assay": "Determination of Protein Kinase A inhibition (Caliper peptide phosphorylation assay)", "details": "recombinant human PKA versus ROCK II", "procedure": "as §2, §3, §4\nas §1, with “PKG1-beta and PKA were” for “The ROCK II enzyme was”, “concentrations” for “a concentration”, “150 ng/ml and 30 ng/ml, respectively,” for “100 ng/mL”, “2.” for “2 (25 mM Tris-HCl, pH 7.4, 5 mM MgCl2, 2 mM DTT and 0.02% (w/v) BSA).”, “kinase solution)” for “ROCK II)”, “plate. The following products/compounds were tested in said assay by using the respective form (salt or free base) obtained as in the examples described above and the following activities were measured.” for “plate.”"}}, "data": [{"smiles": "NC(c1ccccc1)C1CCC(Oc2cc3cc[nH]c(=O)c3cc2Cl)CC1", "note": "(single isomer, unassigned) [Example 40, 6-[4-(Amino-phenyl-methyl)-cyclohexyloxy]-7-chloro-2H-isoquinolin-1-one]", "values": [{"measurement": "IC50", "setting": "[1]", "result": "100 to 1000", "unit": "nM"}]}, {"smiles": "CC(N)(C1CCCC1)C1CCC(Oc2cc3cc[nH]c(=O)c3cc2Cl)CC1", "note": "(single isomer, unassigned) [Example 118, 6-{4-[1-Amino-1-cyclopentyl-ethyl]-cyclohexyl-oxy}-7-chloro-2H-isoquinolin-1-one]", "values": [{"measurement": "IC50", "setting": "[1]", "result": "100 to 1000", "unit": "nM"}]}, {"smiles": "CCC(N)(CC)C1CCC(Oc2cc3cc[nH]c(=O)c3cc2Cl)CC1", "note": "(single isomer, unassigned) [Example 119, 6-{4-[1-Amino-1-ethyl-propyl]-cyclohexyloxy}-7-chloro-2H-isoquinolin-1-one]", "values": [{"measurement": "IC50", "setting": "[1]", "result": "100 to 1000", "unit": "nM"}]}, {"smiles": "CCCC(C)(N)C1CCC(Oc2cc3cc[nH]c(=O)c3cc2Cl)CC1", "note": "(single isomer, unassigned) [Example 124, 6-{4-[1-Amino-1-methyl-n-butyl]-cyclohexyloxy}-7-chloro-2H-isoquinolin-1-one]", "values": [{"measurement": "Selectivity against PKG", "setting": "[2]", "result": ">10"}, {"measurement": "Selectivity against PKA", "setting": "[3]", "result": ">100"}]}, {"smiles": "NC(C1CCC(Oc2cc3cc[nH]c(=O)c3cc2Cl)CC1)C1CC1", "note": "(single isomer, unassigned) [Example 132, 6-[4-(Amino-cyclopropyl-methyl)-cyclohexyloxy]-7-chloro-2H-isoquinolin-1-one]", "values": [{"measurement": "Selectivity against PKG", "setting": "[2]", "result": ">10"}, {"measurement": "Selectivity against PKA", "setting": "[3]", "result": ">100"}]}, {"smiles": "CC(N)(c1ccccc1)C1CCC(Oc2cc3cc[nH]c(=O)c3cc2Cl)CC1", "note": "(stereo not shown) [Example 34, 6-[4-(1-Amino-1-phenyl-ethyl)-cyclohexyloxy]-7-chloro-2H-isoquinolin-1-one]", "values": [{"measurement": "Selectivity against PKG", "setting": "[2]", "result": ">10"}, {"measurement": "Selectivity against PKA", "setting": "[3]", "result": ">300"}]}, {"smiles": "CCC(N)[C@]1(c2ccc(C)c(OC)c2)CC[C@H](Oc2cc3cc[nH]c(=O)c3cc2Cl)CC1", "note": "(stereo partly drawn) [Example 64, cis-6-[4-(1-Amino-propyl)-4-(3-methoxy-4-methyl-phenyl)-cyclohexyloxy]-7-chloro-2H-isoquinolin-1-one]", "values": [{"measurement": "Selectivity against PKG", "setting": "[2]", "result": ">100"}, {"measurement": "Selectivity against PKA", "setting": "[3]", "result": ">1000"}]}, {"smiles": "CCC(N)[C@]1(c2ccc(F)c(F)c2)CC[C@H](Oc2cc3cc[nH]c(=O)c3cc2C)CC1", "note": "(stereo partly drawn) [Example 65, cis-6-[4-(1-Amino-propyl)-4-(3,4-difluoro-phenyl)-cyclohexyloxy]-7-methyl-2H-isoquinolin-1-one]", "values": [{"measurement": "pIC50", "setting": "[1]", "result": "+++++ (6.0≦pIC50<7.0)"}]}, {"smiles": "CCC(N)[C@]1(c2ccc(F)c(F)c2)CC[C@H](Oc2c(F)cc3c(=O)[nH]ccc3c2C)CC1", "note": "(stereo partly drawn) [Example 67, cis-6-[4-(1-Amino-propyl)-4-(3,4-difluoro-phenyl)-cyclohexyloxy]-7-fluoro-5-methyl-2H-isoquinolin-1-one]", "values": [{"measurement": "pIC50", "setting": "[1]", "result": "+++++ (6.0≦pIC50<7.0)"}]}, {"smiles": "CCC(N)[C@]1(c2ccccc2)CC[C@H](Oc2cc3ccncc3cc2Cl)CC1", "note": "(stereo partly drawn) [Example 89, cis-1-[4-(7-Chloro-iso-quinolin-6-yloxy)-1-phenyl-cyclohexyl]-propylamine]", "values": [{"measurement": "pIC50", "setting": "[1]", "result": "+++++ (6.0≦pIC50<7.0)"}]}, {"smiles": "CCC(N)[C@]1(c2ccccc2)CC[C@H](Oc2c(C)cc3cnccc3c2C)CC1", "note": "(stereo partly drawn) [Example 90, cis-1-[4-(5,7-Dimethyl-isoquinolin-6-yloxy)-1-phenyl-cyclohexyl]-propylamine]", "values": [{"measurement": "pIC50", "setting": "[1]", "result": "+++++ (6.0≦pIC50<7.0)"}]}, {"smiles": "CCC(N)[C@]1(c2ccccc2)CC[C@H](Oc2ccc3cnccc3c2Cl)CC1", "note": "(stereo partly drawn) [Example 92, cis-1-[4-(5-Chloro-isoquinolin-6-yloxy)-1-phenyl-cyclohexyl]-propylamine]", "values": [{"measurement": "pIC50", "setting": "[1]", "result": "+++++ (6.0≦pIC50<7.0)"}]}, {"smiles": "CCC(N)[C@]1(c2ccccc2)CC[C@H](Oc2cc3ccncc3cc2Br)CC1", "note": "(stereo partly drawn) [Example 94, cis-1-[4-(7-Bromo-isoquinolin-6-yloxy)-1-phenyl-cyclohexyl]-propylamine]", "values": [{"measurement": "pIC50", "setting": "[1]", "result": "+++++ (6.0≦pIC50<7.0)"}]}, {"smiles": "CCC(N)[C@]1(c2ccccc2)C[C@H]2C[C@@H]1CC2Oc1cc2cc[nH]c(=O)c2cc1Cl", "note": "(stereo partly drawn) [Example 101, 6-[(1R,4R,5R)-5-(1-Amino-propyl)-5-phenyl-bicyclo[2.2.1]hept-2-yloxy]-7-chloro-2H-isoquinolin-1-one]", "values": [{"measurement": "pIC50", "setting": "[1]", "result": "+++++ (6.0≦pIC50<7.0)"}]}, {"smiles": "CCC(N)[C@]1(c2ccccc2)CC[C@H](Oc2cc3ccnc(N)c3cc2Cl)CC1", "note": "(stereo partly drawn) [Example 111, cis-6-[4-(1-Amino-propyl)-4-phenyl-cyclohexyloxy]-7-chloro-isoquinolin-1-ylamine]", "values": [{"measurement": "pIC50", "setting": "[1]", "result": "++++++ (7.0≦pIC50<8.0)"}]}, {"smiles": "COCCC(N)[C@]1(c2ccc(F)cc2)CC[C@H](Oc2cc3cc[nH]c(=O)c3cc2Cl)CC1", "note": "(stereo partly drawn) [Example 115, cis-6-[4-(1-Amino-3-methoxy-propyl)-4-(4-fluoro-phenyl)-cyclohexyloxy]-7-chloro-2H-isoquinolin-1-one]", "values": [{"measurement": "pIC50", "setting": "[1]", "result": "+++++ (6.0≦pIC50<7.0)"}]}, {"smiles": "COc1ccc(C(C)(N)C2CCC(Oc3cc4cc[nH]c(=O)c4cc3Cl)CC2)cc1", "note": "(stereo not shown) [Example 117, 6-{4-[1-Amino-1-(4-methoxy-phenyl)-ethyl]-cyclohexyloxy}-7-chloro-2H-isoquinolin-1-one]", "values": [{"measurement": "Selectivity against PKG", "setting": "[2]", "result": ">10"}, {"measurement": "Selectivity against PKA", "setting": "[3]", "result": ">300"}]}]}
